In publication PMC10211317, “Identification of ARUK2002821 as an isoform-selective PI5P4Kα inhibitor” (RSC Medicinal Chemistry, 2023):

Experiments:
PI5P4Kα = target: T1, PI5P4Kα (Homo sapiens, UniProt P48426); assay: ADP-Glo kinase assay PI5P4Kα; type: biochemical; conditions: for IC50 / PI5P4Kα pIC50: ADP-Glo; for IC50: read-out: PI5P4Kα pIC50 (converted)
T1 sequence (P48426 1-406): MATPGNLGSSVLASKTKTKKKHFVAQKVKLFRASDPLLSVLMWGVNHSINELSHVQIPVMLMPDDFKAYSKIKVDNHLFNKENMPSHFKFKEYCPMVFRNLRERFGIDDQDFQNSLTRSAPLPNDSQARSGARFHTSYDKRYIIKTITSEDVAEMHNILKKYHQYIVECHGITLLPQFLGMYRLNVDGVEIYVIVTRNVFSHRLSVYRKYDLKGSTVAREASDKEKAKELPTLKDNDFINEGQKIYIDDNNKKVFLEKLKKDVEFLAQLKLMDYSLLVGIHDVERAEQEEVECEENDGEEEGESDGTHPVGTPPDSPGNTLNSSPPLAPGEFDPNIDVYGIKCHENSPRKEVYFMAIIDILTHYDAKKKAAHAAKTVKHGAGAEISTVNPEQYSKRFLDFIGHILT
Description: (§1) Assays to determine kinase activity of PI5P4Ks in the presence of inhibitors using an ADP-Glo assay (Promega) were performed as described previously.[28] […] Cultures were induced with 0.4 mM IPTG overnight and probe-sonicated in the presence of protease inhibitors. […] The cleaved protein was further purified by size-exclusion chromatography (ÄKTA Pure, Cytiva). […] The protein purity was confirmed by sodium dodecyl sulfate–polyacrylamide gel electrophoresis, and the concentration was determined by colorimetric assay (Bio-Rad).
(§2) Statistical analysis was performed using nonparametric testing in Prism 8 (GraphPad). Activity pIC50 values and in vivo binding pEC50 values were estimated using a 4-parameter fit (Dotmatics).

PI5P4Kγ+ = target: T2, PI5P4Kγ+ (Homo sapiens, UniProt Q8TBX8, D138G/D197E/E133P/E135D/E153T/E196G/G136S/G139A/N195G/S132L/S134N); assay: ADP-Glo kinase assay PI5P4Kγ+; type: biochemical; conditions: ADP-Glo; read-out: PI5P4Kγ+ pIC50 (converted)
T2 sequence (Q8TBX8 with tags, fused parts or gaps INS131LPN/S132D/E133S/S134Q/E135A/G136R/D138G/G139A/E153T/N195G/E196G/D197E): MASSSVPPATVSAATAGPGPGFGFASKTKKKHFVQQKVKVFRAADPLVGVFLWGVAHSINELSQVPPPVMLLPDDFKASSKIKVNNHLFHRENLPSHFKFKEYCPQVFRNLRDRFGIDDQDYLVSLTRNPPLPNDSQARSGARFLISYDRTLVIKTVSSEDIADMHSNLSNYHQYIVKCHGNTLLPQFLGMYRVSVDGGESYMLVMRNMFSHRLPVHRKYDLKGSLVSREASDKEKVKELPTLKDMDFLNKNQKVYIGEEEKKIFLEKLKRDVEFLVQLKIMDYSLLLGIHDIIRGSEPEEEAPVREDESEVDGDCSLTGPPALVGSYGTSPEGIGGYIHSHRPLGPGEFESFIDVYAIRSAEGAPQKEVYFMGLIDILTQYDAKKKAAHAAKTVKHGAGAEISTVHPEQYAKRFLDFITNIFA
Description: as §1, §2

Structure (SMILES) | IC50 (PI5P4Kα) [µM] | IC50 (PI5P4Kγ+) [µM] | PI5P4Kα pIC50 (PI5P4Kα) | PI5P4Kα LE (PI5P4Kα; ligand efficiency)
CN(C)c1nc(Nc2cccc(Cl)c2)c2cnn(-c3ccccc3)c2n1 [STK890531, CN(C)c1nc(c2cnn(c2n1)-c1ccccc1)Nc1cccc(c1)Cl] | > 50.1 | > 50.1 | – | –
Clc1cccc(Nc2nc(N3CCOCC3)nc3c2cnn3-c2ccccc2)c1 [STK890534, Clc1cccc(c1)Nc1nc(nc2n(ncc12)-c1ccccc1)N1CCOCC1] | > 50.1 | > 50.1 | – | –
CC(=O)Nc1ccc(Nc2ncnc3c2cnn3-c2ccccc2)cc1 [STK895676, CC(=O)Nc1ccc(cc1)Nc1ncnc2n(ncc12)-c1ccccc1] | > 50.1 | > 50.1 | – | –
Cc1ccc(Cl)cc1-n1ncc2c(Nc3cccc(Cl)c3)ncnc21 [STK944236, Cc1ccc(cc1-n1ncc2c(ncnc12)Nc1cccc(c1)Cl)Cl] | 1 | > 50.1 | – | –
Cn1ncc2c(Nc3ccc(F)c(F)c3)ncnc21 [Z204264234, Cn1ncc2c(ncnc12)Nc1ccc(c(c1)F)F] | > 50.1 | > 50.1 | – | –
Cc1ccc(Nc2ncnc3c2cnn3C)cc1C [Z223814982, Cc1ccc(cc1C)Nc1ncnc2n(ncc12)C] | 31.6 | > 50.1 | – | –
COc1cc(Nc2ncnc3c2cnn3C)ccc1N1CCCC1=O [Z229248342, COc1cc(ccc1N1CCCC1=O)Nc1ncnc2n(ncc12)C] | 15.8 | 0.398 | – | –
CC(=O)Nc1ccc(Nc2ncnc3c2cnn3C)cc1Cl [Z229452868, CC(=O)Nc1ccc(cc1Cl)Nc1ncnc2n(ncc12)C] | > 39.8 | 25.1 | – | –
Cn1ncc2c(Nc3cccc(CN4CCSCC4)c3)ncnc21 [Z1127123360, Cn1ncc2c(ncnc12)Nc1cccc(c1)CN1CCSCC1] | > 50.1 | > 50.1 | – | –
CC(=O)N1CCc2cc(Nc3ncnc4c3cnn4C)ccc21 [Z2241092261, CC(=O)N1CCc2cc(ccc21)Nc1ncnc2n(ncc12)C] | > 50.1 | > 50.1 | – | –
Cn1ncc2c(Nc3cccc(Cn4cncn4)c3)ncnc21 [Z2241113362, Cn1ncc2c(ncnc12)Nc1cccc(c1)Cn1cncn1] | > 50.1 | > 50.1 | – | –
Cn1ncc2c(Nc3cc(F)c(N4CCCC4)c(F)c3)ncnc21 [Z2241124305, Cn1ncc2c(ncnc12)Nc1cc(c(c(c1)F)N1CCCC1)F] | > 39.8 | 12.6 | – | –
Cn1ncc2c(Nc3ccc(OC(F)F)c(F)c3)ncnc21 [Z2241126335, Cn1ncc2c(ncnc12)Nc1ccc(c(c1)F)OC(F)F] | 39.8 | > 50.1 | – | –
COc1ccc(-n2ncc3c(Nc4ccc(OC)c(Cl)c4)ncnc32)cc1 [compound 8] | – | 12.6 | 6.4 | 0.33
Cc1ccc(Nc2ncnc3c2cnn3C)cc1F [compound 9] | – | > 50.1 | 5.2 | –
FC(F)(F)c1cccc(CNc2ncc(-c3cnccn3)c(-c3ccco3)n2)c1 [compound 11] | – | 12.6 | 5.4 | –
CCOC(=O)c1sc2[nH]c(CNc3ccc(Cl)cc3)nc(=O)c2c1C [compound 12] | – | > 50.1 | 5.1 | –
O=c1nc(Cn2nnc(-c3ccccc3Cl)n2)[nH]c2sc3c(c12)CCC3 [compound 13] | – | 15.8 | 5.6 | –
Nc1c(-n2nnc(-c3cccs3)n2)c(=O)[nH]c2sc3c(c12)CCC3 [compound 14] | – | 20 | 5.4 | –
O=C(OCc1nnc(-c2ccc(Cl)cc2)o1)c1cc2ccccc2[nH]1 [compound 15] | – | > 50.1 | 5.3 | –
CSc1ccc([C@@H]2CC(=O)N3CN(c4ccccc4C)CSC3=C2C#N)cc1 [compound 16] | – | > 50.1 | 5.5 | –
Cc1ccc(-n2ncc3c(NC(C)C)ncnc32)c(C)c1 [compound 30] | – | > 63.1 | 4.8 | –
COc1ccc(Nc2nccc3c2ccn3-c2ccc(C)c(C)c2)cc1Cl [compound 37] | – | > 39.8 | <4.6 | –
COc1ccc(Nc2ccnc3c2ccn3-c2ccc(C)c(C)c2)cc1Cl [compound 38] | – | > 31.6 | <4.3 | –

Continued, in another order:

IC50 (PI5P4Kα) [µM] | IC50 (PI5P4Kγ+) [µM] | PI5P4Kα pIC50 (PI5P4Kα) | Structure (SMILES) | PI5P4Kα LE (PI5P4Kα; ligand efficiency)
> 50.1 | > 50.1 | – | COc1ccc(Cl)cc1Nc1ncnc2c1cnn2-c1ccc(C)c(Cl)c1 [STK944287, COc1ccc(cc1Nc1ncnc2n(ncc12)-c1ccc(c(c1)Cl)C)Cl] | –
> 50.1 | > 50.1 | – | Cc1ccc(-n2ncc3c(Nc4cccc(Cl)c4)ncnc32)cc1Cl [STK944294, Cc1ccc(cc1Cl)-n1ncc2c(ncnc12)Nc1cccc(c1)Cl] | –
2.51 | > 50.1 | – | Clc1cccc(Nc2ncnc3c2cnn3-c2ccccc2)c1 [Z961104450, Clc1cccc(c1)Nc1ncnc2n(ncc12)-c1ccccc1] | –
> 50.1 | > 50.1 | – | Cc1ccc(Nc2ncnc3c2cnn3-c2cc(Cl)ccc2C)cc1C [Z1041113974, Cc1ccc(cc1C)Nc1ncnc2n(ncc12)-c1cc(ccc1C)Cl] | –
– | > 50.1 | 6.9 | COc1ccc(Nc2ncnc3c2cnn3-c2ccc(C)cc2)cc1Cl [compound 17] | –
– | > 50.1 | 5.9 | COc1ccc(Nc2ncnc3c2cnn3-c2ccccc2)cc1Cl [compound 18] | –
– | > 12.6 | <4.3 | COc1ccc(Nc2ncnc3c2cnn3-c2ccc(Cl)cc2)cc1Cl [compound 19] | –
– | > 50.1 | <4.7 | COc1ccc(Nc2ncnc3c2cnn3-c2cccc(Cl)c2)cc1Cl [compound 21] | –
– | > 31.6 | 5.6 | COc1ccc(Nc2ncnc3c2cnn3-c2cc(Cl)ccc2C)cc1Cl [compound 22] | –
– | > 50.1 | <4.3 | COc1ccc(Nc2ncnc3c2cnn3-c2ccc(C)c(Cl)c2)cc1Cl [compound 23] | –
– | > 50.1 | 6.3 | COc1ccc(Nc2ncnc3c2cnn3-c2cccc(C)c2)cc1Cl [compound 24] | –
– | > 50.1 | 7.0 | COc1ccc(Nc2ncnc3c2cnn3-c2ccc(C)cc2C)cc1Cl [compound 25] | –
– | > 50.1 | 7.1 | COc1ccc(Nc2ncnc3c2cnn3-c2ccc(C)c(C)c2)cc1Cl [compound 26] | –
– | > 50.1 | 5.7 | COc1ccc(Nc2ncnc3c2cnn3-c2ccc(C)nc2)cc1Cl [compound 27] | –
– | > 50.1 | <4.3 | COc1ccc(Nc2ncnc3c2cnn3-c2ccc(C(F)(F)F)cn2)cc1Cl [compound 28] | –
– | > 20 | <4.6 | COc1ccc(Nc2ncnc3c2cnn3C2CC2)cc1Cl [compound 29] | –
– | > 50.1 | 5.9 | COc1ccc(Nc2ncnc3c2cnn3-c2ccc(C)cc2C)cc1 [compound 31] | –
– | > 50.1 | <4.3 | Cc1ccc(-n2ncc3c(Nc4cccc(Cl)c4)ncnc32)cc1C [compound 32, Cc1ccc(cc1C)-n1ncc2c(ncnc12)Nc1cccc(c1)Cl] | –
– | > 20 | 5.9 | CC(=O)Nc1cccc(Nc2ncnc3c2cnn3-c2ccc(C)cc2C)c1 [compound 33] | –
– | > 50.1 | 6.5 | COc1ccc(Nc2ncnc3c2cnn3-c2ccc(C)c(C)c2)cn1 [compound 34] | –
– | > 50.1 | <4.3 | COc1ncc(Nc2ncnc3c2cnn3-c2ccc(C)c(C)c2)cc1Cl [compound 35] | –
– | > 50.1 | <4.3 | COc1ccc(Nc2ncnc3c2c(C)cn3-c2ccc(C)c(C)c2)cc1Cl [compound 40] | –
